Measured values: patent US20240254218A1 (ICAHN SCHOOL OF MEDICINE AT MOUNT SINAI, priority 2021, published 2024)

Columns and labels:
FSHR signaling = assay: Pathway inhibitors on FSH-induced signalling in SH-SY5Y cells; type: cell-based, human; conditions: FSH 30 ng/ml 30 minutes; for FSH-induced AEP activation (cleavage and phosphorylation) / FSH-induced C/EBPβ activation/expression / FSH-induced AKT phosphorylation: PTX 50 ng/ml; for FSH-induced AEP activation (cleavage and phosphorylation) / FSH-induced C/EBPβ activation/expression / FSH-induced SRPK2 phosphorylation/activation: AKTi-1/2 10 μM; for FSH-induced AEP activation (cleavage and phosphorylation) / FSH-induced C/EBPβ activation/expression / FSH-induced AKT phosphorylation / FSH-induced SRPK2 phosphorylation/activation: PD98059 10 μM
Text: Of note, MAPK-induced phosphorylation of residue T188 of C/EBPβ regulates its transcriptional activity (Ramji, D. P. & Foka, P. Biochem J 365, 561-575, (2002)). Likewise, AKT phosphorylates SRPK2, which, in turn, activates AEP by phosphorylating residue S266. […] Pertussis toxin inhibited FSH-induced C/EBPβ and AEP activation and AKT phosphorylation (FIG. 2E). […] In contrast, while the MEK1 inhibitor PD98059 blocked FSH-induced C/EBPβ, AEP and SRPK2 activation, AKT was unaffected (FIG. 2E).

FSH receptor (FSHR) = target: T1, FSH receptor (FSHR) (Homo sapiens, UniProt P23945); conditions: cited from earlier work
T1 sequence (P23945 18-695): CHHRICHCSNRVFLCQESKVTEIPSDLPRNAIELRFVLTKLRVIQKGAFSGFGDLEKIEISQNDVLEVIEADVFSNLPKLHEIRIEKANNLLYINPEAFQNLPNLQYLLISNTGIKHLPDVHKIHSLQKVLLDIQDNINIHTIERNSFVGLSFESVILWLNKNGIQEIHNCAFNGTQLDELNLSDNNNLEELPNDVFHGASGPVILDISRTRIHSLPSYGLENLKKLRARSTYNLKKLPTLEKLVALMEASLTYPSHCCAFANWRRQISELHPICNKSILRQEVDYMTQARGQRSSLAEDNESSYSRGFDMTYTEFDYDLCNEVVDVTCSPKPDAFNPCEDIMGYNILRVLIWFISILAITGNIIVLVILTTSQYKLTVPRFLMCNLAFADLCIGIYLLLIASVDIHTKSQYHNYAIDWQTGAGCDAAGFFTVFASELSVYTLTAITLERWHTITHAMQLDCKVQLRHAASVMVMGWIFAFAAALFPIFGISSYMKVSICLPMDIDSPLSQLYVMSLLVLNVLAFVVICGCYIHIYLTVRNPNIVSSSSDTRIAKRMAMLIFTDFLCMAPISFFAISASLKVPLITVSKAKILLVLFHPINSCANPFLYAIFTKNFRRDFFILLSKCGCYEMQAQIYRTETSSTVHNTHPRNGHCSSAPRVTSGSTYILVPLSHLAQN

Row | Molecule | effect on any signaling molecule (FSHR signaling; SQ22536 100 μM) | FSH-induced AEP activation (cleavage and phosphorylation) (FSHR signaling) | FSH-induced C/EBPβ activation/expression (FSHR signaling) | FSH-induced AKT phosphorylation (FSHR signaling) | FSH-induced SRPK2 phosphorylation/activation (FSHR signaling) | mode of action on the FSH receptor (FSHR) (FSH receptor (FSHR))
1 | Nc1ncnc2c1ncn2C1CCCO1 (stereo not drawn) [SQ22536] | Absence of an effect |  |  |  |  | 
2 | pertussis toxin |  | inhibited | inhibited | inhibited |  | 
3 | O=c1[nH]c2ccccc2n1C1CCN(Cc2ccc(-c3nc4cc5nc[nH]c5cc4nc3-c3ccccc3)cc2)CC1 [AKTi-1/2] |  | attenuated | attenuated |  | attenuated | 
4 | COc1cccc(-c2cc(=O)c3ccccc3o2)c1N [PD98059] |  | blocked | blocked | unaffected | blocked | 
5 | COc1ccc(N=Nc2c(S(=O)(=O)[O-])cc3cc(Nc4nc(Cl)nc(N(CCC(N)=O)CCC(N)=O)n4)ccc3c2O)cc1.[Na+] [7-[4-[Bis-(2-carbamoyl-ethyl)-amino]-6-chloro-(1,3,5)-triazin-2-ylamino)-4-hydroxy-3-(4-methoxy-phenylazo)-naphthalene]-2-sulfonic acid, sodium salt] |  |  |  |  |  | selective, noncompetitive inhibitor
